Experimental data: US20220340983A1, “SYSTEMS AND ASSAYS FOR IDENTIFYING PU.1 INHIBITORS” (Massachustts Institute of Technology, priority 2019, published 2022)

Key:
Format in all cases: cell-based, human
[1] = system: iPS and ES-microglia; experiment: ATP levels (CellTiter-Glo luminescence per well) in microglia
Experimental: Top row: Effect of a 2-day treatment with DPBS (10 μL/mL), IFNγ (25 ng/mL), TNFα (25 ng/mL), TGFβ (25 ng/mL), IL1β (25 ng/mL), LPS (25 ng/mL), ATP (100 nM), CD200 (100 ng/mL), IFNα (25 ng/mL), IL12 (5 ng/mL), CX3CL1 (100 ng/mL), CCL5 (100 ng/mL), PMA (10 ng/mL), IFNβ (10 ng/mL), IL33 (10 ng/mL), and IL4 (100 ng/mL). n=52 for DPBS, n=9 for all other inflammatory molecules, except IL33 where n=3. Bottom row: effect after co-application with A11 (20 nM). Scale bar 10 μm. […] Student's unpaired, two sided t-test, ****P≤0.0001, ***P≤0.001, **P≤0.01, *P≤0.05. […] Top row: An increase in number of cells per well with ≥2 BODIPY-positive structures was observed after a 2-day treatment with IFNγ (25 ng/mL), TNFα (25 ng/mL) and IL33 (10 ng/mL) as compared to DPBS treatment. […] Student's unpaired, two-sided t-test, ***P≤0.001, **P≤0.01, *P≤0.05. […] A 2-day treatment with IFNγ (25 ng/mL) caused increase in ATP levels that was reversed by A11 (20 nM) treatment in iPS (left panel) and ES-microglia (right panel). Student's unpaired, twosided t-test, **P≤0.01. […]
FIGS. 17A-17H show results from comparing the effects of multiple inflammatory molecules in iPS-microglia. […] Quantification based on total Vybrant DiI-positive surface area divided by number of Hoechst positive cells per field of view. […]

[2] = system: iPSC-microglia; experiment: Morphology of IFN-gamma activated iPSC-microglia; settings: IFN-gamma 25 ng/mL 3 days, co-treated with A11 2.5 μM 2 days
Experimental: FIGS. 10A-10D show anti-inflammatory properties of A11 after IFNγ treatment on human induced pluripotent stem cell derived microglia. Cell viability is shown in FIG. 10A as measured with CellTiter Glo (Promega) in untreated (vehicle), A11 (2.5 μM) treated, IFNγ (25 ng/mL) treated and A11 +IFNγ treated cells. The morphology (round represent un-activated and elongated, filamentous represent activated by IFNγ) of these same conditions is shown in FIGS. 10B and quantified in FIG. 10C.
Human induced pluripotent stem cell derived microglia (iPSC-microglia) were activated with IFN-gamma (25 ng/mL, 3 days) and co-treated with A11 (2.5 μM, 2 days).

[3] = system: iPSC-microglia; experiment: Uptake of pHrodo-GFP-labelled mouse myelin particles in iPSC-microglia; settings: concentration response curve, after 48 h
Experimental: FIGS. 12A-12B show the effects of A11 on cell viability and myelin uptake after 48 h.
A concentration response curve was performed for cell viability and myelin uptake (FIG. 12A) in iPSC-microglia. Myelin uptake was measured by uptake of pHrodo-GFP-labelled wild-type mouse myelin particles (FIG. 12B). […] The IC50s obtained for these assays was in the low nM range, matching the data obtained in BV2 cells.

IC50 of myelin uptake [3]: low nM range
SMILES: O=S(=O)(NCc1ccncc1)c1ccc(C2CCCCC2)cc1 [Compound A11]
ATP levels, increase caused by IFNγ ([1]; 2-day IFNγ 25 ng/mL plus A11 20 nM): reversed
amount of ATP per well ([1]; A11 alone ≤20 nM): no effect
morphology induced by IFN-gamma [2]: reversal of the elongated and filamentous morphology induced by IFN-gamma
maximal possible reduction in myelin uptake [3]: 50%
